{
  "source": "patent US12729377B2",
  "about": "“RNAi agents and compositions for inhibiting expression of angiopoietin-like 3 (ANGPTL3), and methods of use” (Arrowhead Pharmaceuticals, Inc., priority 2017, dated 2026)",
  "key": {"[1]": {"tested_on": "ANGPTL3 gene", "assay": "Example 3: serum triglycerides in mice", "format": "in vivo", "experimental": "(§1) To assess the in vivo activity of ANGPTL3 RNAi agents that are designed to target positions 921 and 922 on the ANGPTL3 gene, six- to eight-week-old female C57bl/6 mice were used. Pre-dose serum samples were taken at day −1 after a four hour fast. At day 1, each mouse was given a single subcutaneous administration of 200 μl containing either 1 mg/kg (mpk) of an ANGPTL3 RNAi agent in D5W (dextrose in 5% water), or control (D5W) with no RNAi agent, according to the dosing groups recited in Table 12.\n(§2) Each of the RNAi agents included a modified sequence and an N-acetyl-galactosamine-containing targeting ligand conjugated to the 5′ terminal end of the sense strand. (See Tables 3, 4, and 5 for modified sequences and targeting ligand structures). The injections were performed between the skin and muscle (i.e. subcutaneous injections) into the loose skin over the neck and shoulder area. Three (3) mice in each group were tested (n=3). […] Mice were fasted for four hours prior to each collection. ANGPTL3 protein levels in serum were measured by ELISA assay (R&D Systems), according to the manufacturer's recommendations. Triglycerides, high-density lipoprotein (HDL), and total cholesterol in serum were measured on a Cobas® Integra 400 (Roche Diagnostics), according to the manufacturer's recommendations.\n(§3) The ANGPTL3 protein levels, triglyceride levels, HDL levels, and total cholesterol levels for each animal were normalized. For normalization, the level of ANGPTL3 protein, triglyceride, HDL, and total cholesterol, respectively, for each animal at a time point, was divided by the pre-treatment level of expression in that animal (in this case at day −1) to determine the ratio of expression “normalized to pre-treatment.” Expression at a specific time point was then normalized to the D5W control group by dividing the “normalized to pre-treatment” ratio for an individual animal by the mean “normalized to pretreatment” ratio of all mice in the D5W control group."}, "[2]": {"tested_on": "ANGPTL3 gene", "assay": "Example 3: serum total cholesterol in mice", "format": "in vivo", "experimental": "as §1, §2, §3"}, "[3]": {"tested_on": "ANGPTL3 gene", "assay": "Example 3: serum HDL in mice", "format": "in vivo", "experimental": "as §1, §2, §3"}, "[4]": {"tested_on": "ANGPTL3 gene", "assay": "Example 4: serum triglycerides in mice", "format": "in vivo", "experimental": "(§4) To assess the in vivo activity of ANGPTL3 RNAi agents that are designed to target additional positions on the ANGPTL3 gene, six- to eight-week-old female C57bl/6 mice were used. Pre-dose serum samples were taken at day −1 after a four hour fast. At day 1, each mouse was given a single subcutaneous administration of 200 μl containing either 1 mg/kg (mpk) or 0.5 mg/kg (mpk) of an ANGPTL3 RNAi agent in D5W (dextrose in 5% water), or control (D5W) with no RNAi agent, according to the dosing groups recited in Table 17.\n(§5) Each of the RNAi agents included a modified sequence and an N-acetyl-galactosamine-containing targeting ligand conjugated to the 5′ terminal end of the sense strand. (See Tables 3, 4, and 5 for modified sequences and targeting ligand structures). The injections were performed between the skin and muscle (i.e. subcutaneous injections) into the loose skin over the neck and shoulder area. Three (3) mice in each group were tested (n=3). Serum was collected on days 8, 15, 22, 29, and day 43 (Groups 1-3, 9, and 11-13 only). Mice were fasted for four hours prior to each collection. ANGPTL3 protein levels in serum were measured by ELISA assay (R&D Systems), according to the manufacturer's recommendations. Triglycerides, high-density lipoprotein (HDL), and total cholesterol in serum were measured on a Cobas® Integra 400 (Roche Diagnostics), according to the manufacturer's recommendations.\nas §3"}, "[5]": {"tested_on": "ANGPTL3 gene", "assay": "Example 4: serum HDL in mice", "format": "in vivo, C57bl/6 mice", "experimental": "as §4, §5, §3"}, "[6]": {"tested_on": "ANGPTL3 protein", "assay": "Example 7: serum ANGPTL3 protein by ELISA in mice", "format": "in vivo, C57bl/6 mice", "parameters": "key: ratio: (level/pre-treatment day -1 level) ÷ mean of D5W control group", "how_it_was_run": "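Female C57bl/6 mice (6–8 weeks, n=3) received a single subcutaneous dose of 0.5 mg/kg GalNAc-conjugated RNAi agent or D5W vehicle. Serum was taken after a 4 h fast at day −1 and days 8, 15, 22 and 29. ANGPTL3 was measured by ELISA and lipids by clinical analyzer, each normalised to the animal's pre-dose level and then to the D5W group mean.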"}, "[7]": {"details": "Day 8, 1.0 mg/kg single subcutaneous dose on day 1, female C57bl/6 mice"}, "[8]": {"details": "Day 15, 1.0 mg/kg single subcutaneous dose on day 1, female C57bl/6 mice"}, "[9]": {"details": "Day 22, 1.0 mg/kg single subcutaneous dose on day 1, female C57bl/6 mice"}, "[10]": {"details": "Day 29, 1.0 mg/kg single subcutaneous dose on day 1, female C57bl/6 mice"}},
  "note": "In the oligonucleotide strings, read from the 5' end, every base follows the letter of its sugar. An asterisk marks phosphorothioate; unmarked linkages are phosphodiester. Other units and linkages are bracketed, terminal groups are in braces. A string of capitals states the bases alone. {NAG37} = tridentate N-acetyl-galactosamine targeting ligand, structure (NAG37)s; [invAb] = inverted abasic unit; m = 2'-O-methyl; f = 2'-fluoro",
  "data": [
    {"substance": "AD05418: RNAi agent duplex: antisense AM07159-AS, sense AM07158-SS (antisense mU*fU*mU*fGmAfAmUfUmAfAmUfGmUfCmCfAmUfGmGfG*mU; sense {NAG37}*[invAb]*mAmCmCmCmAmUmGmGfAfCfAmUmUmAmAmUmUmCmAmAmA*[invAb])", "values": [
      {"measurement": "Avg TG (Average Triglycerides Normalized to Pre-Treatment and Control)", "setting": "[1]; [7]", "result": 0.718},
      {"measurement": "Avg TG (Average Triglycerides Normalized to Pre-Treatment and Control)", "setting": "[1]; [8]", "result": 0.791},
      {"measurement": "Avg TG (Average Triglycerides Normalized to Pre-Treatment and Control)", "setting": "[1]; [9]", "result": 0.855},
      {"measurement": "Avg TG (Average Triglycerides Normalized to Pre-Treatment and Control)", "setting": "[1]; [10]", "result": 0.881},
      {"measurement": "Avg Total Chol (Average Total Cholestrol Normalized to Pre-Treatment and Control)", "setting": "[2]; [7]", "result": 0.783},
      {"measurement": "Avg Total Chol (Average Total Cholestrol Normalized to Pre-Treatment and Control)", "setting": "[2]; [8]", "result": 0.842},
      {"measurement": "Avg Total Chol (Average Total Cholestrol Normalized to Pre-Treatment and Control)", "setting": "[2]; [9]", "result": 0.916},
      {"measurement": "Avg Total Chol (Average Total Cholestrol Normalized to Pre-Treatment and Control)", "setting": "[2]; [10]", "result": 0.953},
      {"measurement": "Avg HDL (Average HDL Normalized to Pre-Treatment and Control)", "setting": "[3]; [7]", "result": 0.766},
      {"measurement": "Avg HDL (Average HDL Normalized to Pre-Treatment and Control)", "setting": "[3]; [8]", "result": 0.823},
      {"measurement": "Avg HDL (Average HDL Normalized to Pre-Treatment and Control)", "setting": "[3]; [9]", "result": 0.910},
      {"measurement": "Avg HDL (Average HDL Normalized to Pre-Treatment and Control)", "setting": "[3]; [10]", "result": 0.916},
      {"measurement": "Avg TG (Average Triglycerides Normalized to Pre-Treatment and Control)", "setting": "[4]; [7]", "result": 0.858},
      {"measurement": "Avg TG (Average Triglycerides Normalized to Pre-Treatment and Control)", "setting": "[4]; [8]", "result": 1.065},
      {"measurement": "Avg TG (Average Triglycerides Normalized to Pre-Treatment and Control)", "setting": "[4]; [9]", "result": 1.079},
      {"measurement": "Avg TG (Average Triglycerides Normalized to Pre-Treatment and Control)", "setting": "[4]; [10]", "result": 0.980},
      {"measurement": "Avg TG (Average Triglycerides Normalized to Pre-Treatment and Control)", "setting": "[4]; Day 43, 1.0 mg/kg single subcutaneous dose on day 1, female C57bl/6 mice", "result": 0.892},
      {"measurement": "Avg HDL, normalized to pre-treatment and control", "setting": "[5]; Day 8, 1.0 mg/kg single SC injection on day 1, n=3", "result": 0.828},
      {"measurement": "Avg HDL, normalized to pre-treatment and control", "setting": "[5]; Day 15, 1.0 mg/kg single SC injection on day 1, n=3", "result": 0.730},
      {"measurement": "Avg HDL, normalized to pre-treatment and control", "setting": "[5]; Day 22, 1.0 mg/kg single SC injection on day 1, n=3", "result": 0.846},
      {"measurement": "Avg HDL, normalized to pre-treatment and control", "setting": "[5]; Day 29, 1.0 mg/kg single SC injection on day 1, n=3", "result": 0.845},
      {"measurement": "Avg HDL, normalized to pre-treatment and control", "setting": "[5]; Day 43, 1.0 mg/kg single SC injection on day 1, n=3", "result": 1.018},
      {"measurement": "Avg ANGPTL3, normalized to pre-treatment and control", "setting": "[6]; Day 8, 0.5 mg/kg single SC injection on day 1, n=3", "result": 0.534},
      {"measurement": "Avg ANGPTL3, normalized to pre-treatment and control", "setting": "[6]; Day 15, 0.5 mg/kg single SC injection on day 1, n=3", "result": 0.565},
      {"measurement": "Avg ANGPTL3, normalized to pre-treatment and control", "setting": "[6]; Day 22, 0.5 mg/kg single SC injection on day 1, n=3", "result": 0.639},
      {"measurement": "Avg ANGPTL3, normalized to pre-treatment and control", "setting": "[6]; Day 29, 0.5 mg/kg single SC injection on day 1, n=3", "result": 0.758}
    ]}
  ]
}
